# Where no end group is shown, it is not given here.
# Target: growth hormone secretagogue receptor (GHSR) of swine, native receptor of the anterior pituitary (swine) (UniProt Q95254)
# Assay: competition with [35S]-Compound A on porcine anterior pituitary membranes, filtration
# Settings: not given
row,Compound,affinity as percent of that of Compound A
1,GHRP-6 (peptide),3.8%

# Target: T1, growth hormone secretagogue receptor (GHSR), porcine anterior pituitary membranes (Sus scrofa, UniProt Q95254)
# T1 construct: Frozen anterior pituitary glands from male swine (50-80 Kg); from tissue; host or cells: anterior pituitary glands of male swine (50-80 kg), crude membranes
# Assay: [35S]-Compound A radioreceptor binding, porcine anterior pituitary membranes
# Settings: not given
# Experimental: Frozen anterior pituitary glands from male swine (50-80 Kg) or from the Wistar male rats (150-200 g) were homogenized in a tissue homogenizer in ice-cold buffer (50 mM Tris-HCl buffer, pH 7.4, 5 mM MgCl2, 2.5 mM EDTA, 0.1% bovine serum albumin and 30 μg/ml bacitracin). The homogenates were centrifuged for 5 min at 1,400×g and the resulting supernatants were then centrifuged at 34,000×g for 20 min. The pellets were resuspended in same buffer to a 1,500 μg protein/ml and stored at -80° C. Protein was determined by a Bio-Rad method (Bio-Rad Laboratories, Richmond, Calif.).
# Aliquots were incubated at 20° C. for 60 min and bound radioligand was separated from free by filtration through GF/C filters pretreated with 0.5% of polyethylenimine in a Brandel cell harvester. […] Assays were carried out in triplicate and experiments repeated at least three times.
# T1 sequence (Q95254 whole entry): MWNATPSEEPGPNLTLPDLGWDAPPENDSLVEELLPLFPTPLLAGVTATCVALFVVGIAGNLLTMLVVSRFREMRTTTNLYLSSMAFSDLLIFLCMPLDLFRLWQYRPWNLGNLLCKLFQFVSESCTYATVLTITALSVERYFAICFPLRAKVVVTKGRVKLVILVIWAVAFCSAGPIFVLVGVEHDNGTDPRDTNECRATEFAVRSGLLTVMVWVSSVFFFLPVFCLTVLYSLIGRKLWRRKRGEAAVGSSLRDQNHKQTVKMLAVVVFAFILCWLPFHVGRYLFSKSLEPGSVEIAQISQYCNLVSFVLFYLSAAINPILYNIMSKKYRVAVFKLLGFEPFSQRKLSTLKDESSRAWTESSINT
row,Compound,IC50
1,Nc1nc2c(ncn2[C@@H]2O[C@H](COP(=O)(O)OP(=O)(O)OP(O)(O)=S)[C@@H](O)[C@H]2O)c(=O)[nH]1 [GTP-γ-S],0.03 µM

# Same assay, conditions: 1 μM
row,Compound,competition with [35S]-Compound A at 1 μM (in words)
1,substance P,did not compete
2,COc1ccc(OC)c(C(O)C(C)N)c1 (stereo not drawn) [methoxamine],did not compete
3,COc1cccc(OC)c1OCCNCC1CSc2ccccc2O1 (stereo not drawn) [benoxathian],did not compete
4,Clc1cccc(Cl)c1N=C1NCCN1 [clonidine],did not compete
5,melanocyte stimulating hormone,did not compete
6,somatostatin: hypothalamic hormone,did not compete
7,galanin,did not compete
8,"PHM-27 (HADGVFTSDFSKLLGQLSAKKYLESLM; ends and bridges not checked; UniProt P01282 81-107, looked up)",did not compete
9,NC(=O)[C@@H]1CCCN1C(=O)[C@H](Cc1cnc[nH]1)NC(=O)[C@@H]1CCC(=O)N1 [thyrotropin releasing hormone],did not compete
10,CC(C)C[C@H]1C(=O)N2CCC[C@H]2[C@]2(O)O[C@](NC(=O)[C@@H]3C=C4c5cccc6[nH]c(Br)c(c56)C[C@H]4N(C)C3)(C(C)C)C(=O)N12 [bromocriptine],did not compete
11,CC(C)NCC(O)c1ccc(O)c(O)c1 (stereo not drawn) [isoproterenol],did not compete
12,CC(COc1ccccc1)N(CCCl)Cc1ccccc1 (stereo not drawn) [phenoxybenzamine],did not compete
13,met-enkephalin,did not compete
14,CC(C)NC[C@H](O)COc1cccc2ccccc12 (racemic) [propanolol],did not compete
15,"GHRH: hypothalamic hormone, growth hormone releasing factor",did not compete
16,"gastrin releasing peptide (VPLPAGGGTVLTKMYPRGNHWAVGHLM; ends and bridges not checked; UniProt P07492 24-50, looked up)",did not compete
17,pituitary adenylate cyclase activating polypeptide-38,did not compete
18,gonadotropin releasing hormone,did not compete

# Same assay, conditions: % of affinity of Compound A
row,Compound,affinity relative to that of Compound A
1,GHRP-6,3.8%
2,CC(C)(N)CC(=O)N[C@@H]1CCc2ccccc2N(Cc2ccc(-c3ccccc3-c3nn[nH]n3)cc2)C1=O [Compound B],0.4%

# Same assay, conditions: GTP analogs / nucleotides; FIG. 26; read-out: inhibition of [35S]-Compound A binding, IC50
row,Compound,IC50
1,Nc1nc2c(ncn2[C@@H]2O[C@H](COP(=O)(O)OP(=O)(O)NP(=O)(O)O)[C@@H](O)[C@H]2O)c(=O)[nH]1 [GMP-PNP],0.11 µM

# Same assay, conditions: double reciprocal plot of saturation isotherm; FIG. 25
row,Compound,nature of competition with [35S]-Compound A (in words)
1,GHRP-6,interacts competitively with Compound A in the same binding site
2,CC(C)(N)CC(=O)N[C@@H]1CCc2ccccc2N(Cc2ccc(-c3ccccc3-c3nn[nH]n3)cc2)C1=O [Compound B],competitor of [^35 S]-Compound A binding

# Same assay, conditions: nucleotides; FIG. 26
row,Compound,effect on [35S]-Compound A binding (in words)
1,Nc1ncnc2c1ncn2[C@@H]1O[C@H](COP(=O)(O)OP(=O)(O)OP(O)(O)=S)[C@@H](O)[C@H]1O [ATP-γ-S],ineffective

# Same assay, conditions: unlabeled competitor; FIG. 24
row,Compound,displacement of / competition with [35S]-Compound A binding (in words)
1,CC(C)(N)CC(=O)N[C@H]1CCc2ccccc2N(Cc2ccc(-c3ccccc3-c3nn[nH]n3)cc2)C1=O [Compound C],competed poorly

# Source: patent publication US6242199A, “Assays for growth hormone secretagogue receptors” (Merck & Co., Inc., priority 1998, dated 2001)
